Measured values as given in patent US20230111310A1, “CARBOXYLIC ACID DERIVATIVE-SUBSTITUTED IMINO ARYL COMPOUND, PREPARATION METHOD THEREFOR, HERBICIDAL COMPOSITION AND USE THEREOF” (Qingdao Kingagroot Chemical Compound Co., Ltd., priority 2020, published 2023).

Tests used:
Type in all cases: in vivo
Descurainia sophia = assay: Composition activity test, soil sealing treatment
Procedure: (§1) are as follows, and the others were purchased from reagent companies. The technical materials were all dissolved in acetone and diluted with an aqueous solution containing 0.1% emulsifier Tween-80. The dilution is performed as required.
(§2) Weeds are cultivated in a controllable sunlight greenhouse at 20 to 30° C., in natural light, and relative humidity of 57% to 72%. […] The test soil was placed quantitatively to 3/4 of the pots and then watered from the bottom of the pots to completely wet the soil to saturation. The test weed seeds were germinated, and uniformly and quantitatively sowed on the surface, then covered with 0.5-2 cm soil according to the seed size, and ready-for use 72 hours after sowing.
(§3) 3 pots with 30 weed seeds per pot were treated in one treatment with 4 replications per treatment.
(§4) The well-sowed weeds were evenly placed on a platform with an area of 0.5 m^2, and a solution of agents was sprayed on the soil thereof by the 3WP-2000-type walking spray tower at a dosage of 450 kg/ha and at a spray pressure of 0.3 MPa. After all the solution was sprayed, the valve was closed. After 30 seconds, the door of the spray tower was opened, and the nutritional bowl was taken out. Then the valve was opened, and the spray tube was cleaned by spraying 50 ml of water.
(§5) A method for investigating absolute number was employed, wherein whole seedlings of survival weeds were cut off with a blade along the soil surface, and the fresh weight of the weeds was weighed with an analytical balance. For dead weeds, the fresh weight thereof was zero.
(§6) The investigation was performed after 21 days of the treatment for only once.
(§7) An optimum ratio of the two active ingredients was determined by the actual control effect, characteristics of herbicides, and balance of a corresponding formula. Wherein, in the formula, X represented the fresh weight inhibition rate of the active ingredient A in a dosage of P, and Y represented the fresh weight inhibition rate of the active ingredient B in a dosage of Q. The statistical results were shown in the table 6.

Conyza Canadensis = assay: Composition activity test, post-emergence foliage spray
Procedure: as §1
(§8) Weeds were cultivated by a pot culture method. […] Full and uniform weed seeds were selected, soaked in warm water at 25° C. for 6 hours, and germinated in a 28° C. biochemical incubator (darkness). The weed seeds that had just germinated were evenly placed on the surface of the soil and then covered with 0.5-1 cm soil according to the sizes of seeds.
(§9) The culture was carried out in a controllable sunlight greenhouse at 20 to 30° C., in natural light, and relative humidity of 57% to 72%.
(§10) 3 pots with 20 weed seeds per pot were treated in one treatment with 4 replications per treatment.
(§11) The agents were used for only once in the experiment. In the stage of weeds with 1.5-2 leaves, the weeds were thinned out to maintain 10 weeds per pot and 30 weeds for each treatment, then continued to be cultured to Conyza Canadensis 10 cm in height, other weeds 3-4 leaves stage and treated.
as §4, with “well-cultured” for “well-sowed”, “stems and leaves” for “soil”, “water. After the treatment, the weeds were routinely cultured in a greenhouse.” for “water.”
as §5, §6, §7

Cyperus serotinus = assay: as above
Procedure: as §1, §8, §9, §10, §11
as §4, with “well-cultured” for “well-sowed”, “stems and leaves” for “soil”, “water. After the treatment, the weeds were routinely cultured in a greenhouse.” for “water.”
as §5, §6, §7

Amaranthus retroflexus = assay: Composition activity test, soil sealing treatment
Procedure: as §1, §2, §3, §4, §5, §6, §7

Cyperus difformis = assay: Composition activity test, post-emergence foliage spray
Procedure: as §1, §8, §9, §10, §11
as §4, with “well-cultured” for “well-sowed”, “stems and leaves” for “soil”, “water. After the treatment, the weeds were routinely cultured in a greenhouse.” for “water.”
as §5, §6, §7

Eriochloa villosa = assay: as above
Procedure: as §1, §8, §9, §10, §11
as §4, with “well-cultured” for “well-sowed”, “stems and leaves” for “soil”, “water. After the treatment, the weeds were routinely cultured in a greenhouse.” for “water.”
as §5, §6, §7

Eleusine indica = assay: as above
Procedure: as §1, §8, §9, §10, §11
as §4, with “well-cultured” for “well-sowed”, “stems and leaves” for “soil”, “water. After the treatment, the weeds were routinely cultured in a greenhouse.” for “water.”
as §5, §6, §7

Echinochloa crusgalli = assay: Composition activity test, soil sealing treatment; conditions: B 600 g a.i./ha
Procedure: as §1, §2, §3, §4, §5, §6, §7

Capsella bursa-pastoris = assay: Composition activity test, post-emergence foliage spray
Procedure: as §1, §8, §9, §10, §11
as §4, with “well-cultured” for “well-sowed”, “stems and leaves” for “soil”, “water. After the treatment, the weeds were routinely cultured in a greenhouse.” for “water.”
as §5, §6, §7

Leptochloa chinensis = assay: Composition activity test, soil sealing treatment
Procedure: as §1, §2, §3, §4, §5, §6, §7

Lolium multiflorum Lamk. = assay: Composition activity test, soil sealing treatment; conditions: B 300 g a.i./ha
Procedure: as §1, §2, §3, §4, §5, §6, §7

CCCCOCN(C(=O)CCl)c1c(CC)cccc1CC [butachlor]
Control effect (%) of B applied alone (B) (Descurainia sophia; B 225 g a.i./ha): 42.2%

CP(=O)(O)CCC(N)C(=O)O (centres unmarked) [glufosinate ammonium]
Control effect (%) of B applied alone (B) (Conyza Canadensis; B 300 g a.i./ha): 57.8%
Control effect (%) of B applied alone (B) (Cyperus serotinus; B 300 g a.i./ha): 23.1%

CP(=O)(O)CC[C@H](N)C(=O)O.N [glufosinate-P-ammonium]
Control effect (%) of B applied alone (B) (Cyperus serotinus; B 150 g a.i./ha): 21.4%

CC(C)N(C(=O)COc1nnc(C(F)(F)F)s1)c1ccc(F)cc1 [flufenacet]
Control effect (%) of B applied alone (B) (Descurainia sophia; B 150 g a.i./ha): 45.6%

Cc1cc(C)cc(OCC(C)Nc2nc(N)nc(C(C)(C)F)n2)c1 (centres unmarked) [triaziflam]
Control effect (%) of B applied alone (B) (Amaranthus retroflexus; B 30 g a.i./ha): 42.1%

CN(C(=O)COc1nc2ccccc2s1)c1ccccc1 [mefenacet]
Control effect (%) of B applied alone (B) (Descurainia sophia; B 150 g a.i./ha): 46.4%

c1cc[n+]2c(c1)-c1cccc[n+]1CC2 [diquat dibromide monohydrate]
Control effect (%) of B applied alone (B) (Conyza Canadensis; B 300 g a.i./ha): 37.8%
Control effect (%) of B applied alone (B) (Cyperus difformis; B 300 g a.i./ha): 18.4%

O=C(O)CNCP(=O)(O)O [glyphosate]
Control effect (%) of B applied alone (B) (Conyza Canadensis; B 450 g a.i./ha): 51.2%

CCC/C(=N\OCC)C1=C(O)CC(CC(C)SCC)CC1=O (centres unmarked) [sethoxydim]
Control effect (%) of B applied alone (B) (Eriochloa villosa; B 45 g a.i./ha): 36.7%

CC1(C)CON(Cc2ccc(Cl)cc2Cl)C1=O [bixlozone]
Control effect (%) of B applied alone (B) (Eleusine indica; B 180 g a.i./ha): 36.7%

CCCN(CCC)C(=O)SCc1ccccc1 [prosulfocarb]
Control effect (%) of B applied alone (B) (Echinochloa crusgalli): 32.6%

O=C(Nc1ccc(F)cc1F)c1cccnc1Oc1cccc(C(F)(F)F)c1 [diflufenican]
Control effect (%) of B applied alone (B) (Capsella bursa-pastoris; B 75 g a.i./ha): 33.1%

Cn1nc(C(F)(F)F)c(CS(=O)(=O)C2=NOC(C)(C)C2)c1OC(F)F [pyroxasulfone]
Control effect (%) of B applied alone (B) (Descurainia sophia; B 60 g a.i./ha): 57.6%

CCCOCCN(C(=O)CCl)c1c(CC)cccc1CC [pretilachlor]
Control effect (%) of B applied alone (B) (Descurainia sophia; B 180 g a.i./ha): 51.2%

CC1(C)CON(Cc2ccccc2Cl)C1=O [clomazone]
Control effect (%) of B applied alone (B) (Eleusine indica; B 150 g a.i./ha): 46.5%

CCC(C)Nc1c([N+](=O)[O-])cc(C(C)(C)C)cc1[N+](=O)[O-] (centres unmarked) [butralin]
Control effect (%) of B applied alone (B) (Leptochloa chinensis; B 180 g a.i./ha): 47.4%

COC(=O)[C@@H](C)Oc1ccc(Oc2cnc3cc(Cl)ccc3n2)cc1 [quizalofop-P-methyl]
Control effect (%) of B applied alone (B) (Eriochloa villosa; B 15 g a.i./ha): 41.7%

Cc1ccccc1CO[C@@H]1C[C@@]2(C(C)C)CC[C@]1(C)O2 (racemic) [cinmethylin]
Control effect (%) of B applied alone (B) (Lolium multiflorum Lamk.): 33.7%

CNC1=C(c2cccc(C(F)(F)F)c2)C(=O)C(c2ccccc2)O1 (centres unmarked) [flurtamone]
Control effect (%) of B applied alone (B) (Capsella bursa-pastoris; B 75 g a.i./ha): 56.7%

CCSC(C)CC1CC(=O)C(/C(CC)=N/OC/C=C/Cl)=C(O)C1 (centres unmarked) [clethodim]
Control effect (%) of B applied alone (B) (Eriochloa villosa; B 30 g a.i./ha): 35.5%

CCC(CC)Nc1c([N+](=O)[O-])cc(C)c(C)c1[N+](=O)[O-] [pendimethalin]
Control effect (%) of B applied alone (B) (Leptochloa chinensis; B 150 g a.i./ha): 43.2%

O=C(Nc1ccc(F)cc1)c1cccc(Oc2cccc(C(F)(F)F)c2)n1 [picolinafen]
Control effect (%) of B applied alone (B) (Capsella bursa-pastoris; B 45 g a.i./ha): 44.4%

COP(=S)(OC)SCC(=O)N(c1ccc(Cl)cc1)C(C)(C)C [anilofos]
Control effect (%) of B applied alone (B) (Descurainia sophia; B 75 g a.i./ha): 38.3%

CCc1cccc(C)c1N(C(=O)CCl)[C@@H](C)COC [s-metolachlor]
Control effect (%) of B applied alone (B) (Descurainia sophia; B 150 g a.i./ha): 31.3%

C[n+]1ccc(-c2cc[n+](C)cc2)cc1 [paraquat dichloride]
Control effect (%) of B applied alone (B) (Conyza Canadensis; B 225 g a.i./ha): 48.4%
Control effect (%) of B applied alone (B) (Cyperus difformis; B 150 g a.i./ha): 35.7%

Cc1ccc2c(c1)[C@H](Nc1nc(N)nc(C(C)F)n1)[C@@H](C)C2 (some centres unmarked) [indaziflam]
Control effect (%) of B applied alone (B) (Amaranthus retroflexus; B 15 g a.i./ha): 49.3%
